This is an account of results in paper PMC5025780, “Copper(II) ions affect the gating dynamics of the 20S proteasome: a molecular and in cell study” (Scientific Reports, 2016).

The assay has as its system proteasome ChT-L activity in HeLa cells. Briefly: Proteasome-Glo Chymotrypsin-Like Cell-Based Assay in intact HeLa cells. Further details: species or system human. To be noted: for Copper-induced proteasome inhibition in cells pretreated with NAC: 100 μM NAC pretreatment 24 h. How it is done: HeLa cells (human cervix carcinoma), were cultured in Dulbecco’s MEM medium (Life Technologies) supplemented with 10% of fetal calf serum (FCS, Life Technologies), glutamax (Invitrogen), 100 U/mL penicillin, 100 µg/mL streptomycin. Cells were routinely grown as stocks in 75 cm^2 flasks in a humidified atmosphere (95% air, 5% CO2) at 37 °C.
The ChT-L proteolytic activity of the proteasome in intact HeLa cells were determined using the Proteasome-Glo™ Chymotrypsin-Like Cell-Based Assay (Promega) according to manufacturer's instructions. Briefly, 800 cells/well were grown in 384 sterile multiwells (optical plate and white walls) in 50 μl of DMEM + FBS10% + PenStrep 1%. After 4 h of cell seeding, Cu(II) was added in cell medium in a concentration range 10–80 μM for 24 h. Then the medium was removed and replaced with FCS free medium. To determine whether or not the residual proteolytic measured was dependent on to proteasome rather than other proteases, we performed a control experiment with epoxomicin, a specific proteasome inhibitor. Epoxomicin (5 μM) was added to the cells 60 min before the proteasome activity assay. The substrate for the β5 ChT-L activity (Suc-LLVY-aminoluciferin) was dissolved in Proteasome-Glo™ Cell-Based Reagent and added to intact cells. After 2 min of shaking for permeabilization and further 10 min of incubation at 25 °C, luminescence was measured with a Varioskan Flash (Thermo) micro plate reader. Proteasome activity in intact cells was also measured by using the internally quenched fluorogenic substrate H2N-K-K(Dabcyl)-K-K-L-L-V-Y-G-E(Edans)-G-R-K-K-R-R-Q-R-R-R- (TED) as described elsewhere. […] The peptide purity was determined by MALDI-TOF experiments carried out with a Bruker Reflex III time-of-flight (TOF) mass spectrometer operating in the reflection mode, and the matrix used was α-cyano 4-hydroxycinnamic. […] TED internalization and cleavage in live HeLa cells was assayed by fluorescence microscopy (see Figure S8 of Supplementary Information).

For `[Cl][Cu][Cl]` [Cu(II), CuCl2], the “Copper-induced proteasome inhibition in cells pretreated with NAC” value runs as follows: (Cu(II) 80 μM) “did not overcome proteasome inhibition”; (Cu(II) 20–40 μM) “completely abolished”. The “ChT-L activity in HeLa cells (normalized to untreated controls)” value (Cu(II) 20 to 80 μM in medium, 24 h) came out at 60%.
